In one test the target is T1, Human Thrombin (Homo sapiens, UniProt P00734).
T1 construct: Determination of Anti-Thrombin (Factor IIa) Activity; purchased Calbiochem
Nature of the test: Determination of Anti-Thrombin (Factor IIa) Activity. It counts as biochemical. The following applies: competitive inhibition; substrate Pefachrome Thr; pH 8.3. Here is the method:
The test compounds (40 μL) adjusted to various concentrations (0.25 to 100 μM) were incubated with Human Thrombin (Calbiochem) enzyme (5 nM) in 31 mM Tris buffer (pH 8.3) containing 81 mM sodium chloride and 0.63% bovine serum albumin (fraction V)(80 μL) at room temperature for about 30 minutes. 80 μL of Pefachrome® Thr (Pentapharm) was adjusted to various concentrations, from 62.5 μM to 1.25 mM. The activity was measured at about 37° C. by monitoring absorbance at 405 nm for about 15 minutes using a FLUOstar OPTIMA™. Control sample was the solvent alone. Each test compound was analyzed twice using 4 concentrations of compound plus control (in duplicate) with 5 concentrations of substrate (50, 100, 200, 300 and 500 μM). The specific activity (ΔA405/min/nM enzyme) was determined for each data point. The Ki for competitive inhibition was then determined for each test compound using the Enzyme Kinetics module of Sigmaplot 8.0 (SPSS).

A further test has as its target T2, Human FXa (Homo sapiens, UniProt P00742).
T2 construct: Determination of Anti-Factor Xa (Fxa) Activity; purchased Calbiochem
Put plainly: Determination of Anti-Factor Xa (Fxa) Activity. It counts as biochemical. The conditions noted are these: competitive inhibition; substrate Pefachrome Xa; pH 7.5. As to the method: The test compounds (40 μL) adjusted to various concentrations (0.25 to 100 μM) were incubated with 5 nM Human FXa (Calbiochem, San Diego, Calif.) enzyme in 125 mM Tris [Tris(hydroxymethyl)aminomethane] buffer (pH 7.5) containing 375 mM sodium chloride and 0.25% polyethylene glycol (MW 8000) (80 μL) at room temperature for about 30 minutes. 80 μL of synthetic substrate Pefachrome® Xa (Pentapharm, Basel, Switzerland), adjusted to various concentrations from 125 μM to 1.25 mM, was added. The activity was measured at 37° C. by monitoring absorbance at 405 nm for 15 minutes using a FLUOstar OPTIMA™ (BMG Labtech GmbH, Offenburg, Germany) microplate reader. Control sample was the solvent alone. Each test compound was analyzed twice using 4 concentrations of compound plus control (in duplicate) with 5 concentrations of substrate (50, 100, 200, 300 and 500 μM). The specific activity (ΔA405/min/nM enzyme) was determined for each data point. The Ki for competitive inhibition was then determined for each test compound using the Enzyme Kinetics module of Sigmaplot 8.0 (SPSS Inc., Chicago, Ill.).

Test [1] concerns platelets (platelet rich plasma). Put plainly: Inhibition of platelet aggregation, collagen as agonist. The following applies: human PRP; for inhibition at 50 µM: compound 50 μM; for inhibition at 100 µM: compound 100 μM; for inhibition at 30 µM: compound 30 μM. It counts as cell-based. As to the method:
(§1) Platelet rich plasma (PRP) was obtained by drawing whole blood from normal human donors (not on any medication) into sodium citrate tubes (3.2%), and centrifuging at 160×g for about 10 minutes. Platelet poor plasma (PPP) was obtained by centrifuging the remainder of the sample after the platelets were removed at 800×g for about 10 minutes. The PRP was adjusted to a count of 280×10^9/L using a mixture of PRP and PPP. The platelets (200 μL) were incubated with the test compounds (25 μL) adjusted to various concentrations (5, 10, 20, 30, 50, and 100 μM) for about 30 minutes at room temperature (approximate final platelet count in the incubation mixture of 250×10^9/L). The samples were incubated for about 3 minutes at about 37° C., and then transferred to the mixing wells of a Chrono-log 4 channel aggregometer (Chrono-log Corp., Havertown, Pa.). After baselines were established, agonist (25 μL of 40 μM ADP (Sigma, St. Louis, Mo.) or 25 μL of 50 μg/mL and 10 μg/mL collagen (Helena Laboratories, Beaumont, Tex.) or 25 μL of 120 μM thrombin receptor activating peptide (TRAP) (Sigma)) was then added. Aggregation was monitored for 5 minutes at 37° C. with stirring (1000 rpm). The amplitude and slope of each tracing were calculated to determine the amount of aggregation. Control samples were performed using only solvent. The % reduction in aggregation was calculated for each sample compared to the proper solvent control.

Test [2] shares this test system. Nature of the test: Inhibition of platelet aggregation, thrombin receptor activating peptide (TRAP) as agonist. It counts as cell-based. The following applies: TRAP 12 μM, human PRP, read-out: % Reduction in Aggregation TRAP (12 μM); for inhibition at 30 µM: compound 30 μM. Here is the method:
as §1

Test [3] has the same test system. Nature of the test: Inhibition of platelet aggregation, ADP as agonist. It counts as cell-based. The following applies: ADP 4 μM, human PRP, read-out: % Reduction in Aggregation ADP (4 μM); for inhibition at 30 µM: compound 30 μM. Here is the method:
as §1

The mark [4] stands for this setting: collagen 1 μg/mL, read-out: % Reduction in Aggregation Collagen (1 μg/mL).
The mark [5] stands for this setting: collagen 5 μg/mL, read-out: % Reduction in Aggregation Collagen (5 μg/mL).

pKi: −log10 of the molar value.

T2 sequence (P00742 235-488 limits assumed): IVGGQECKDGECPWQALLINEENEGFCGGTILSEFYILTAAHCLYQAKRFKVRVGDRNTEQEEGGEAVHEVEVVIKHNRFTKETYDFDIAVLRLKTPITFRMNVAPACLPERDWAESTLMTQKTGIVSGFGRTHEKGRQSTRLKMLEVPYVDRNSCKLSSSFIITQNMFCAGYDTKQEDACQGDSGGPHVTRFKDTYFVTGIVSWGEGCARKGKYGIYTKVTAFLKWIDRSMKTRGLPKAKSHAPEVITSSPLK
T2 sequence (P00742 41-179 partner limits assumed): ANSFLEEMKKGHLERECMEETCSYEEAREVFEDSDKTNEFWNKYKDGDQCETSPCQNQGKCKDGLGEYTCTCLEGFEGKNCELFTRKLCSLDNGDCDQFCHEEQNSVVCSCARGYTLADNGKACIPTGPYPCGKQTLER

Turning to `N=C(N)c1ccc(COc2c(CF)ncc(CNc3ccc(C(=N)N)cc3)c2CF)cc1` [Compound 153, 4-{5-[(4-Carbamimidoyl-phenylamino)-methyl]-2,4-bis-fluoromethyl-pyridin-3-yloxymethyl}-benzamidine], the negative logarithm of the Ki (pKi) (as a rule, −log10 of the Ki, conventionally taken in molar units) on Human Thrombin is 7.92; at Human FXa, 6.18.
As to `Cc1ncc(CNc2ccc(C(=N)N)cc2)c(CF)c1OCc1cccc(C(=N)N)c1` [Compound 108, 4-{[4-Fluoromethyl-5-(3-amidine-benzyloxy)-6-methyl-pyridin-3-ylmethyl]-amino}-benzamidine], the pKi at Human FXa is 6.42.
With `Cc1c(CNc2ccc(C(=N)N)cc2)cnc(CO)c1OCc1cccc(C(=N)N)c1` [Compound 138, 4-{[5-(3-Amidine-benzyloxy)-6-hydroxymethyl-4-methyl-pyridin-3-ylmethyl]-amino}-benzamidine], the pKi on Human Thrombin was 7.41; on Human FXa it was 6.39.
`Cc1ncc(CO)c(CNc2ccc(C(=N)N)cc2)c1OCc1ccc(C(=N)N)cc1` [Compound 3, 4-{[3-(4-Carbamimidoyl-benzyloxy)-5-hydroxymethyl-2-methyl-pyridin-4-ylmethyl]-amino}-benzamidine]: the inhibition at 50 µM in test [1] (setting [4]) is 20%; in test [1] (setting [5]), 0%; in test [2] (compound 50 μM), 81%; in test [3] (compound 50 μM), 27%.
For `Cc1ncc(COc2ccc(C(=N)N)cc2)c(C)c1OCc1cccc(C(=N)N)c1` [Compound 70, 4-[4,6-Dimethyl-5-(3-carbamimidoyl-benzyloxyl)-pyridin-3-ylmethoxy]-benzamidine], the pKi is 6.15 on Human Thrombin and 5.05 at Human FXa.
As for `Cc1ncc(CNc2ccc(-c3ccc(C(=N)N)cc3)cc2)c(CNCCCCCC(=O)O)c1O` [Compound 46, 6-({5-[(4′-Carbamimidoyl-biphenyl-4-ylamino)-methyl]-3-hydroxy-2-methyl-pyridin-4-ylmethyl}-amino)-hexanoic acid], the inhibition at 100 µM in test [1] (setting [4]) was 35%; in test [1] (setting [5]), 19%; in test [2] (compound 100 μM), 29%; in test [3] (compound 100 μM) it was 46%.
For `Cc1c(CNc2ccc(C(=N)N)cc2)cnc(CF)c1OCc1cccc(C(=N)N)c1` [Compound 140, 4-{[5-(3-Amidine-benzyloxy)-6-fluoro-methyl-4-methyl-pyridin-3-ylmethyl]-amino}-benzamidine], the pKi on Human Thrombin is 7.77; at Human FXa, 6.37.
Consider `CCc1c(CNc2ccc(C(=N)N)cc2)cnc(C)c1OCc1cccc(C(=N)N)c1` [Compound 103, 3-{5-[(4-Amidino-phenylamino)-methyl]-4-ethyl-2-methyl-pyridin-3-yloxymethyl}-benzamidine], for which the negative logarithm of the Ki (pKi) at Human Thrombin is 7.33; at Human FXa, 6.02.
Take `Cc1ncc(COc2ccc(C(=N)N)cc2)c(CO)c1OCc1ccc(C(=N)N)cc1` [Compound 15, 4-(5-(4-Carbamimidoyl-benzyloxy)-4-hydroxymethyl-6-methyl-pyridin-3-ylmethoxy)-benzamidine]: the pKi at Human Thrombin was 5.78; at Human FXa, 4.96.
Regarding `Cc1ncc(CNC(=O)c2ccc(C(=N)N)cc2)c(CO)c1OCc1ccc(C(=N)N)cc1` [Compound 73, 4-Carbamimidoyl-N-[5-(4-carbamimidoyl-benzyloxy)-4-hydroxymethyl-6-methyl-pyridin-3-ylmethyl]-benzamide], the pKi at Human Thrombin is 6.14; on Human FXa, 5.46.
On to `N=C(N)c1ccc(NCc2cnc(CF)c(OCc3cccc(C(=N)N)c3)c2CF)cc1` [Compound 148, 4-{[4,6-Bis-fluoromethyl-5-(3-amidine-benzyloxy)-pyridin-3-ylmethyl]-amino}-benzamidine], for which the negative-log Ki (pKi) at Human Thrombin is 8.05; at Human FXa it was 6.33.
On to `Cc1ncc(CNc2ccc(C(=N)N)cc2)cc1OCc1cccc(C(=N)N)c1` [Compound 136, 4-((5-(3-amidinebenzyloxy)-6-methylpyridin-3-yl)methylamino)benzamidine], for which the pKi on Human Thrombin is 6.48; at Human FXa it was 6.30.
As to `Cc1c(CNc2ccc(C(=N)N)cc2)cnc(C=O)c1OCc1cccc(C(=N)N)c1` [Compound 142, 4-{[5-(3-Amidine-benzyloxy)-6-formyl-4-methyl-pyridin-3-ylmethyl]-amino}-benzamidine], the pKi on Human Thrombin is 6.73; on Human FXa, 6.23.
For the molecule `Cc1ncc(CNc2ccc(C(=N)N)cc2)c(CNCCCCCC(=O)O)c1OCc1ccc(C(=N)N)cc1` [Compound 54, 6-({3-(4-Carbamimidoyl-benzyloxy)-5-[(4-carbamimidoyl-phenylamino)-methyl]-2-methyl-pyridin-4-ylmethyl}-amino)-hexanoic acid], the inhibition at 30 µM in test [1] (setting [4]) turned out to be 15%; in test [1] (setting [5]) it was 13%; in test [2], 53%; in test [3], 23%.
On to `Cc1ncc(COc2ccc(C(=N)N)cc2)c(C(F)F)c1OCc1ccc(C(=N)N)cc1` [Compound 21, 4-[4,4-Difluoromethyl-6-methyl-5-(4-carbamimidoyl-benzyloxy)-pyridin-3-ylmethoxy]-benzamidine], for which the negative-log Ki (pKi) was 6.29 at Human Thrombin and 4.72 on Human FXa.
As for `Cc1nc(C2CC2)c(CNc2ccc(C(=N)N)cc2)c(CO)c1OCc1ccc(C(=N)N)cc1` [Compound 174, 4-{5-[(4-Carbamimidoyl-phenylamino)-methyl]-6-cyclopropyl-4-hydroxymethyl-2-methyl-pyridin-3-yloxymethyl}-benzamidine], the negative logarithm of the Ki (pKi) on Human Thrombin was 7.43; on Human FXa it was 5.97.
`Cc1nc(C2CC2)c(CNc2ccc(C(=N)N)cc2)c(CO)c1OCc1cccc(C(=N)N)c1` [Compound 172, 3-{5-[(4-Carbamimidoyl-phenylamino)-methyl]-6-cyclopropyl-4-hydroxymethyl-2-methyl-pyridin-3-yloxymethyl}-benzamidine]: the pKi at Human Thrombin was 7.39; at Human FXa it was 6.42.
Take `Cc1ncc(CNc2ccc(-c3ccc(C(=N)N)cc3)cc2F)c(CO)c1OCc1ccc(C(=N)N)cc1` [Compound 63, 4′-{[5-(4-Carbamimidoyl-benzyloxy)-4-hydroxymethyl-6-methyl-pyridin-3-ylmethyl]-amino}-3′-fluoro-biphenyl-4-carboxamidine]: the inhibition at 30 µM in test [1] (setting [4]) came out at 95%; in test [1] (setting [5]), 41%; in test [2], 94%; in test [3], 95%.

These data come from patent US7812037B2, “Dual antiplatelet/anticoagulant pyridoxine analogs” (Medicure International, Inc., priority 2004, dated 2010).
